Usually inhibition in vivo stands for the change of the read-out against control, counted positive when it falls.

The text below walks through data of ChEMBL document CHEMBL3046395, “Synthesis and pharmacological investigation of novel 3-(benzyl)-2-substituted amino-3H-quinazolin-4-ones as analgesic and anti-inflammatory agents” (Med Chem Res, 2008).

In data set [1] the test system is Rattus norvegicus. Kind of data set: Anti-inflammatory activity in Rattus norvegicus (rat) assessed as inhibition of carrageenan-induced paw edema at 20 mg/kg, po measured at 30 min post carrageenan-challenge (reference value: 5.1 +/- 0.29%). The data set is classed as functional. The note with it: 0.5 h.
Data set [2] has as its system Rattus norvegicus. As to the kind of experiment: Anti-inflammatory activity in Rattus norvegicus (rat) assessed as inhibition of carrageenan-induced paw edema at 10 mg/kg, po measured at 30 min post carrageenan-challenge (reference value: 5.1 +/- 0.29%). It is filed as functional. The note with it: 0.5 h. For orientation: Carrageenan injected into the paw causes an acute inflammation.

The subject of data set [3] is Mus musculus. As to the kind of experiment: Analgesic activity in Mus musculus Wistar albino (mouse) at 20 mg/kg, po after 3 hr by tail-flick test (reference value: 4 +/- 0.91%). The data set is classed as functional. On the technique in general: Thermal pain tests record how soon the animal reacts.
Data set [4] deals with Mus musculus. Kind of data set: Analgesic activity in Mus musculus Wistar albino (mouse) at 10 mg/kg, po after 3 hr by tail-flick test (reference value: 4 +/- 0.91%). The data set is classed as functional.
The test system of data set [5] is Mus musculus. Kind of data set: Analgesic activity in Mus musculus Wistar albino (mouse) at 20 mg/kg, po after 2 hr by tail-flick test (reference value: 4 +/- 0.59%). It is filed as functional.
Data set [6] concerns Mus musculus. Kind of data set: Analgesic activity in Mus musculus Wistar albino (mouse) at 10 mg/kg, po after 2 hr by tail-flick test (reference value: 4 +/- 0.59%). It is filed as functional.
Data set [7] deals with Mus musculus. As to the kind of experiment: Analgesic activity in Mus musculus Wistar albino (mouse) at 20 mg/kg, po after 1 hr by tail-flick test (reference value: 6 +/- 0.49%). It is filed as functional.
In data set [8] the test system is Mus musculus. As to the kind of experiment: Analgesic activity in Mus musculus Wistar albino (mouse) at 10 mg/kg, po after 1 hr by tail-flick test (reference value: 6 +/- 0.49%). It is filed as functional.
Data set [9] relates to Mus musculus. As to the kind of experiment: Analgesic activity in Mus musculus Wistar albino (mouse) at 20 mg/kg, po after 30 min by tail-flick test (reference value: 2 +/- 0.35%). It is filed as functional.
Data set [10] relates to Mus musculus. As to the kind of experiment: Analgesic activity in Mus musculus Wistar albino (mouse) at 10 mg/kg, po after 30 min by tail-flick test (reference value: 2 +/- 0.35%). It is filed as functional.
Data set [11] concerns Rattus norvegicus. Kind of data set: Gastrointestinal toxicity in Rattus norvegicus Wistar albino (rat) assessed as ulcer index at 20 mg/kg, ip administered QD for 3 days measured on day 4 (reference value: 0.15 +/- 0.32). The data set is classed as organism-based. Details: dose 20 mg/kg, route intraperitoneal. The note with it: in vivo, 72 h.
Data set [12] deals with Rattus norvegicus. Kind of data set: Anti-inflammatory activity in Rattus norvegicus (rat) assessed as inhibition of carrageenan-induced paw edema at 20 mg/kg, po measured at 3 hr post carrageenan-challenge (reference value: 3.2 +/- 0.93%). The data set is classed as functional.
For data set [13], the system named is Rattus norvegicus. Kind of data set: Anti-inflammatory activity in Rattus norvegicus (rat) assessed as inhibition of carrageenan-induced paw edema at 10 mg/kg, po measured at 3 hr post carrageenan-challenge (reference value: 3.2 +/- 0.93%). It is filed as functional.
Data set [14] has as its system Rattus norvegicus. As to the kind of experiment: Anti-inflammatory activity in Rattus norvegicus (rat) assessed as inhibition of carrageenan-induced paw edema at 20 mg/kg, po measured at 2 hr post carrageenan-challenge (reference value: 5.7+/- 0.32%). It is filed as functional.
For data set [15], the system named is Rattus norvegicus. Kind of data set: Anti-inflammatory activity in Rattus norvegicus (rat) assessed as inhibition of carrageenan-induced paw edema at 10 mg/kg, po measured at 2 hr post carrageenan-challenge (reference value: 5.7+/- 0.32%). The data set is classed as functional.
The test system of data set [16] is Rattus norvegicus. Kind of data set: Anti-inflammatory activity in Rattus norvegicus (rat) assessed as inhibition of carrageenan-induced paw edema at 20 mg/kg, po measured at 1 hr post carrageenan-challenge (reference value: 6.1 +/- 0.27%). The data set is classed as functional.
The test system of data set [17] is Rattus norvegicus. Kind of data set: Anti-inflammatory activity in Rattus norvegicus (rat) assessed as inhibition of carrageenan-induced paw edema at 10 mg/kg, po measured at 1 hr post carrageenan-challenge (reference value: 6.1 +/- 0.27%). It is filed as functional.

Regarding `O=C1Nc2ccccc2/C1=N\Nc1nc2ccccc2c(=O)n1Cc1ccccc1`, the inhibition in vivo at 20 mg/kg with Rattus norvegicus [1] came out at 40%; in the data set on Rattus norvegicus [12], 32%; in the data set on Rattus norvegicus [14], 51%; with Rattus norvegicus [16] it was 45%. The inhibition in vivo at 10 mg/kg with Rattus norvegicus [2] came out at 36%; in the data set on Rattus norvegicus [13], 25%; in the data set with Rattus norvegicus [15], 42%; in the data set on Rattus norvegicus [17], 38%. In addition, the Activity in the data set with Mus musculus [3] stood at 35%; in the data set with Mus musculus [4], 30%; in the data set on Mus musculus [5] it was 61%; with Mus musculus [6], 48%; with Mus musculus [7] it was 57%; in the data set on Mus musculus [8], 46%. For the same molecule, the Activity in the data set on Mus musculus [9] was 52%; with Mus musculus [10], 45%. Besides, the UI in the data set with Rattus norvegicus [11] was 0.62.

For the molecule `CC/C(C)=N/Nc1nc2ccccc2c(=O)n1Cc1ccccc1`, the inhibition in vivo at 20 mg/kg in the data set on Rattus norvegicus [1] was found to be 50%; with Rattus norvegicus [12], 39%; in the data set on Rattus norvegicus [14], 60%; in the data set on Rattus norvegicus [16], 59%. Further, the inhibition in vivo at 10 mg/kg in the data set with Rattus norvegicus [2] worked out at 45%; in the data set with Rattus norvegicus [13], 26%; in the data set on Rattus norvegicus [15], 51%; with Rattus norvegicus [17] it was 48%. In addition, the Activity in the data set on Mus musculus [3] was found to be 45%; in the data set with Mus musculus [4], 35%; in the data set on Mus musculus [5], 76%; in the data set with Mus musculus [6], 65%; with Mus musculus [7] it was 73%; with Mus musculus [8], 62%. Also, the Activity with Mus musculus [9] was determined as 71%; in the data set with Mus musculus [10], 59%. Also, the UI in the data set on Rattus norvegicus [11] came out at 0.53.

Turning to `O=c1c2ccccc2nc(N/N=C/c2ccc([N+](=O)[O-])cc2)n1Cc1ccccc1`, the inhibition in vivo at 20 mg/kg worked out at 42% with Rattus norvegicus [1], 31% in the data set with Rattus norvegicus [12], 49% in the data set with Rattus norvegicus [14] and 45% with Rattus norvegicus [16]. In addition, the inhibition in vivo at 10 mg/kg with Rattus norvegicus [2] worked out at 31%; with Rattus norvegicus [13], 24%; with Rattus norvegicus [15], 37%; in the data set on Rattus norvegicus [17], 31%. For the same molecule, the Activity with Mus musculus [3] is 39%; in the data set on Mus musculus [4] it was 34%; with Mus musculus [5], 54%; in the data set with Mus musculus [6], 42%; in the data set with Mus musculus [7], 48%; in the data set on Mus musculus [8] it was 42%. Moreover, the Activity in the data set with Mus musculus [9] is listed as 46%; in the data set on Mus musculus [10], 38%. Moreover, the UI in the data set with Rattus norvegicus [11] turned out to be 0.82.

On to `Cc1ccccc1/C=N/Nc1nc2ccccc2c(=O)n1Cc1ccccc1`, for which the inhibition in vivo at 20 mg/kg stood at 45% in the data set on Rattus norvegicus [1], 36% with Rattus norvegicus [12], 51% with Rattus norvegicus [14] and 47% in the data set on Rattus norvegicus [16]. In addition, the inhibition in vivo at 10 mg/kg came to 39% in the data set on Rattus norvegicus [2], 28% in the data set with Rattus norvegicus [13], 45% in the data set on Rattus norvegicus [15] and 42% in the data set on Rattus norvegicus [17]. The Activity in the data set on Mus musculus [3] was 39%; in the data set with Mus musculus [4], 32%; with Mus musculus [5], 59%; with Mus musculus [6], 48%; in the data set with Mus musculus [7], 58%; in the data set on Mus musculus [8] it was 48%. The values for the Activity in the data set on Mus musculus [9] and in the data set with Mus musculus [10] were 52% and 44%, respectively. The UI with Rattus norvegicus [11] amounted to 0.66.

Turning to `CCC(CC)=NNc1nc2ccccc2c(=O)n1Cc1ccccc1`, the inhibition in vivo at 20 mg/kg was determined as 59% in the data set on Rattus norvegicus [1], 41% in the data set on Rattus norvegicus [12], 70% in the data set on Rattus norvegicus [14] and 68% in the data set on Rattus norvegicus [16]. In addition, the inhibition in vivo at 10 mg/kg with Rattus norvegicus [2] was found to be 49%; in the data set on Rattus norvegicus [13] it was 30%; in the data set with Rattus norvegicus [15] it was 56%; with Rattus norvegicus [17] it was 53%. The Activity in the data set on Mus musculus [3] is on record as 50%; in the data set with Mus musculus [4], 41%; in the data set with Mus musculus [5], 81%; in the data set with Mus musculus [6] it was 72%; with Mus musculus [7], 79%; in the data set with Mus musculus [8], 69%. The Activity in the data set on Mus musculus [9] stood at 74%; with Mus musculus [10] it was 63%. The UI in the data set on Rattus norvegicus [11] came out at 0.5.

Take `CCC/C(C)=N/Nc1nc2ccccc2c(=O)n1Cc1ccccc1`: the inhibition in vivo at 20 mg/kg in the data set with Rattus norvegicus [1] is 58%; in the data set on Rattus norvegicus [12] it was 39%; in the data set on Rattus norvegicus [14] it was 67%; with Rattus norvegicus [16] it was 65%. The inhibition in vivo at 10 mg/kg in the data set with Rattus norvegicus [2] came to 47%; in the data set on Rattus norvegicus [13], 30%; in the data set with Rattus norvegicus [15] it was 53%; in the data set with Rattus norvegicus [17], 51%. For the same molecule, the Activity is 48% in the data set with Mus musculus [3]; 40% in the data set on Mus musculus [4]; 79% in the data set on Mus musculus [5]; 67% with Mus musculus [6]; 77% with Mus musculus [7]; 60% in the data set with Mus musculus [8]. For the same molecule, the Activity with Mus musculus [9] worked out at 67%; in the data set on Mus musculus [10], 58%. Also, the UI with Rattus norvegicus [11] is 0.48.

Take `O=c1c2ccccc2nc(N/N=C/c2ccccc2[N+](=O)[O-])n1Cc1ccccc1`: the inhibition in vivo at 20 mg/kg with Rattus norvegicus [1] came out at 43%; in the data set on Rattus norvegicus [12], 28%; in the data set on Rattus norvegicus [14], 47%; in the data set with Rattus norvegicus [16], 43%. The inhibition in vivo at 10 mg/kg in the data set with Rattus norvegicus [2] amounted to 30%; in the data set with Rattus norvegicus [13] it was 21%; in the data set on Rattus norvegicus [15], 38%; with Rattus norvegicus [17], 36%. The Activity in the data set on Mus musculus [3] is on record as 38%; with Mus musculus [4], 32%; with Mus musculus [5] it was 57%; with Mus musculus [6] it was 46%; with Mus musculus [7], 56%; in the data set on Mus musculus [8], 44%. Further, the Activity in the data set with Mus musculus [9] was 49%; in the data set with Mus musculus [10], 37%. Further, the UI in the data set with Rattus norvegicus [11] stood at 0.87.

With `O=c1c2ccccc2nc(N/N=C/c2ccccc2Cl)n1Cc1ccccc1`, the inhibition in vivo at 20 mg/kg in the data set with Rattus norvegicus [1] stood at 38%; in the data set with Rattus norvegicus [12], 31%; with Rattus norvegicus [14], 42%; with Rattus norvegicus [16] it was 38%. Further, the inhibition in vivo at 10 mg/kg was 30% in the data set on Rattus norvegicus [2], 26% with Rattus norvegicus [13], 35% in the data set with Rattus norvegicus [15] and 32% in the data set on Rattus norvegicus [17]. Besides, the Activity turned out to be 35% in the data set on Mus musculus [3]; 29% in the data set with Mus musculus [4]; 53% in the data set with Mus musculus [5]; 41% in the data set on Mus musculus [6]; 49% with Mus musculus [7]; 37% with Mus musculus [8]. For the same molecule, the Activity came out at 46% with Mus musculus [9] and 34% in the data set with Mus musculus [10]. Also, in the data set with Rattus norvegicus [11], the UI turned out to be 0.86.
